Test results published in patent publication US5612188A, “Automated, multicompartmental cell culture system” (Cornell Research Foundation, Inc., priority 1994, dated 1997).
Like-named read-outs stand apart in the source and are kept apart here.

Assays:
liver GSH [1] = settings: cited from earlier work
lung GSH = settings: after BSO, before 200 mg/kg naphthalene; cited from earlier work
[2] = Biotransformation of naphthalene by rat liver microsomes; assay type: in vitro ADME
Text: (§1) Determination of Vmax's and Km's for naphthalene oxide production and Vmax's for GSH conjugates and dihydrodiol production in rat microsomes were done in the same way as for the mouse. Sources of data were Buckpitt, et al, 1987, supra, Hesse, S. and Mezger, M., "Involvement of Phenolic Metabolites in the Irreversible Protein-binding of Aromatic Hydrocarbons: Reactive Metabolites of [^14 C]-naphthalene and [^14 C] 1-naphthol Formed by Rat Liver Microsomas", Mol. Pharmacol. 16: 667-675 (1979) which is hereby incorporated by reference, O'Brien et al., 1985, supra, van Bladeren et al., 1985, supra, and Yost, G. S., Buckpitt, A. R., Roth, R. A., and McLemore, T. L., "Mechanisms of Lung Injury by Systematically Administered Chemicals", Toxicol. Appl. Pharmacol. 101: 179-195 (1989), which is hereby incorporated by reference.

liver GSH [3] = settings: 200 mg/kg oral, rat, 6 1/2 hours; observed; cited from earlier work
[4] = Biotransformation of naphthalene by mouse liver microsomes; assay type: in vitro ADME; settings: mouse, liver microsomes; read-out: Km, N to 1R, 2S NO
Method: (§2) Biotransformation rates of naphthalene at initial concentrations of 0.05, 0.1 and 1.0 mM by lung and liver microsomes have been determined (O'Brien, et al. (1985), supra, Buckpitt, A. R., Bahnson, L. S., and Franklin, R. B., "Hepatic and Pulmonary Microsomal Metabolism of Naphthalene to Glutathione Adducts: Factors Affecting the Relative Rates of Conjugate Formation", J. Pharmacol. Exp. Ther. 231: 291-300 (1984), which is hereby incorporated by reference), and Buckpitt, A. R., Castagnoli, Jr., N., Nelson, et al., "Stereoselectivity of Naphthalene Epoxidation by Mouse, Rat, and Hamster Pulmonary, Hepatic and Renal Microsomal Enzymes", Drug Metab. Dispos. 15: 491-498 (1987), which is hereby incorporated by reference). Assuming Michaelis-Menten kinetics, fitting s/v vs s was used to provide Vmax and Km values. Since mouse liver produces the 1R,2S- and 1S,2R-naphthalene oxide enantiomers in equal amounts at all substrate concentrations (Buckpitt, et al., 1987, supra), the calculated Vmax was divided by two to give the production rates for each enantiomer.

mouse liver microsomes [5] = experiment: as above; assay type: in vitro ADME; settings: Mouse, Liver
Method: as §2

mouse liver = settings: 200 mg/kg naphthalene, cited from earlier work
Sherman rats = settings: po, cited from earlier work
CD-1 mice = settings: po, cited from earlier work
[6] = Biotransformation of naphthalene by rat lung microsomes; assay type: in vitro ADME
Text: as §1

mouse lung microsomes [7] = settings: cited from earlier work
mouse liver microsomes [8] = settings: Observed; 1 mM naphthalene, 5 mM GSH; cited from earlier work
mouse liver microsomes [9] = settings: cited from earlier work
Clara cells of the lung = settings: similar binding levels in lung and liver; cited from earlier work
[10] = Biotransformation of naphthalene by mouse lung microsomes; assay type: in vitro ADME; settings: mouse, lung microsomes
Method: as §2
(§3) For the lung, the biotransformation of naphthalene was modeled as the sum of two separate reactions, each producing a different enantiomer, with the Vmax's summing to the value calculated as described above.

mouse lung microsomes [11] = experiment: as above; assay type: in vitro ADME
Method: as §2, §3

mouse lung = settings: cited from earlier work; for Covalent binding in the lung: Male Swiss-Webster mouse, ip
[12] = Lung, Experiment, 0.1 mM naphthalene, 6 minutes
[13] = [N] 1.0 mM, Buckpitt et al., 1987
[14] = Liver, Experiment, 0.1 mM naphthalene, 6 minutes

CCCCS(=N)(=O)CCC(N)C(=O)O (stereo not shown) [BSO, buthionine sulfoximine]
GSH level in liver, percent of control (liver GSH [1]; after BSO, before 200 mg/kg naphthalene): 35% | hepatic and pulmonary GSH (liver GSH [1]; mice pretreated with BSO): hepatic and pulmonary GSH are depleted | GSH depletion, liver versus lung (liver GSH [1]; treatment of mice with BSO): depletes GSH in the liver more than in the lung | GSH level in lung, percent of control (lung GSH): 86%

c1ccc2ccccc2c1 [naphthalene]
Km ([2]; read-out: Km, N to 1R, 2S NO): 400 µM | Km ([2]; read-out: Km, N to 1S, 2R NO): 800 µM | liver GSH, percent of the initial concentration (liver GSH [3]): 17% | Km [4]: 307 µM | Vmax, N to 1R, 2S NO (mouse liver microsomes [5]): 6.95 nmol/mg/min | Vmax, N to 1S, 2R NO (mouse liver microsomes [5]): 6.95 nmol/mg/min | observed binding level in liver (mouse liver; with BSO pretreatment): 1069 pmol/mg | observed binding level in liver (mouse liver; without BSO): 255 pmol/mg | LD50 (Sherman rats; female Sherman rats): 2400 mg/kg | LD50 (Sherman rats; male Sherman rats): 2200 mg/kg | LD50 (CD-1 mice; female CD-1 mice): 710 mg/kg | LD50 (CD-1 mice; male CD-1 mice): 533 mg/kg | Km ([6]; read-out: Km, N to 1R, 2S NO): 400 µM | Km ([6]; read-out: Km, N to 1S, 2R NO): 1540 µM | Covalently bound (mouse lung microsomes [7]; [12]): 7.4 nmol/mg | Diol formed (mouse lung microsomes [7]; [12]): 4.2 nmol/mg | NOH formed (mouse lung microsomes [7]; [12]): 21.2 nmol/mg | observed ratio of conjugates of 1R, 2S and 1S, 2R naphthalene oxide (mouse lung microsomes [7]; [N] 0.015 mM, Buckpitt and Franklin, 1989): 30 | observed v (mouse lung microsomes [7]; [N] 0.05 mM, O'Brien et al., 1985): 1.33 nanomoles of product/mg micros | observed v (mouse lung microsomes [7]; [N] 0.10 mM, Buckpitt et al., 1984): 6.01 nanomoles of product/mg micros | observed ratio of conjugates of 1R, 2S and 1S, 2R naphthalene oxide (mouse lung microsomes [7]; [13]): 10 | observed v (mouse lung microsomes [7]; [13]): 8.3 nanomoles of product/mg micros | 1,2 dihydrodiol formation rate (mouse liver microsomes [8]): 2.43 nmol/mg/min | Conjugate 2 formation rate (mouse liver microsomes [8]): 3.64 nmol/mg/min | Conjugates 1 and 3 formation rate (mouse liver microsomes [8]): 3.56 nmol/mg/min | Covalently bound (mouse liver microsomes [9]; [14]): 5.8 nmol/mg | Diol formed (mouse liver microsomes [9]; [14]): 11.9 nmol/mg | NOH formed (mouse liver microsomes [9]; [14]): 3.5 nmol/mg | 1R,2S- and 1S,2R-naphthalene oxide enantiomers produced (mouse liver microsomes [9]; mouse liver, all substrate concentrations): equal amounts | site of toxicity (Clara cells of the lung): toxicity is limited to the Clara cells of the lung | Km ([10]; read-out: Km, N to 1R, 2S NO): 100 µM | Km ([10]; read-out: Km, N to 1S, 2R NO): 400 µM | Vmax, N to 1R, 2S NO (mouse lung microsomes [11]): 9.0 nmol/mg/min | Vmax, N to 1S, 2R NO (mouse lung microsomes [11]): 1.1 nmol/mg/min | experimental covalent binding in lung (mouse lung; 200 mg/kg naphthalene, with BSO pretreatment): 411 pmol/mg | experimental covalent binding in lung (mouse lung; 200 mg/kg naphthalene, without BSO): 137 pmol/mg | experimental increase in lung covalent binding by BSO (mouse lung; 200 mg/kg naphthalene): 3.0 factor | Covalent binding in the lung (mouse lung; 300 mg/kg): 675 pmol/mg | Covalent binding in the lung (mouse lung; 400 mg/kg): 912 pmol/mg
